Measurements published in patent US20110039762A1, “TARGETED ANTIMICROBIAL MOIETIES” (C3 JIAN, INC., priority 2009, published 2011).
“Also recorded” adds a separate entry of the source.

tested on: microorganisms (e.g., bacteria, yeasts, fungi); assay: Targeting peptide binding to target microorganisms (Table 3); conditions: microorganism the targeting peptide binds; binding in aqueous buffers varied by peptide solubility, preferably 1x PBS

Row | Substance | Target(s)
1 | 1T-239 (ADDLLNKRLTDLIMENAETVKTIDLDNSD; Peptide with targeting and/or antimicrobial activity) [Peptide 1T-239] | A. naeslundii; also recorded: S. gordonii; also recorded: S. mitis; also recorded: S. mutans; also recorded: S. oralis; also recorded: S. sanguinis
2 | PF-047 (NQEPSLQQDKEQKDNKG; Peptide with targeting and/or antimicrobial activity) | S. mutans
3 | 1T-201 (KRKHENVIVAEEMRVIKN; Peptide with targeting and/or antimicrobial activity) [Peptide 1T-201] | S. sanguinis
4 | 1T-108 (WGPLGPERPLW; Peptide with targeting and/or antimicrobial activity) [Peptide 1T-108] | S. gordonii; also recorded: S. mitis; also recorded: S. mutans; also recorded: S. oralis; also recorded: S. salivarious; also recorded: S. sanguinis
5 | 1T-52 (DEYPAKLPLSDKGATEPRRH; Peptide with targeting and/or antimicrobial activity) [Peptide 1T-52] | S. aureus; also recorded: C. xerosis; also recorded: P. aeruginosa
6 | 1T-219 (RNINVSATFITEKSLV; Peptide with targeting and/or antimicrobial activity) [Peptide 1T-219] | S. sanguinis
7 | 1T-252 (MKKNLKRFYALVLGFIIGCLFVSILIFIGY; Peptide with targeting and/or antimicrobial activity) [Peptide 1T-252] | F. nucleatum; also recorded: S. sanguinis
8 | TT-310 (TKLKKNNKLLSAKKENTLHTKDK; Peptide with targeting and/or antimicrobial activity) | F. nucleatum
9 | 1T-113 (HGAHQRTGQRLHHHRGRTVSGCRQNPVAGVDPDEHR; Peptide with targeting and/or antimicrobial activity) [Peptide 1T-113] | S. mitis
10 | 1T-101 (RLRVGRATDLPLTSFAVGVVRNLPDAPAH; Peptide with targeting and/or antimicrobial activity) [Peptide 1T-101] | A. naeslundii; also recorded: P. gingivalis; also recorded: S. epidermidis; also recorded: S. gordonii; also recorded: S. mitis; also recorded: S. mutans; also recorded: S. oralis; also recorded: S. sanguinis
11 | PF-S024 (SKRGRKRKDRRKKKANHGKRPNS; Peptide with targeting and/or antimicrobial activity) | Corynebacteria
12 | TT-305 (ARNALNMRDVPVDAAIIGIIDGMDEE; Peptide with targeting and/or antimicrobial activity) | F. nucleatum
13 | 1T-294 (YDKIADGVFKIGKRGVL; Peptide with targeting and/or antimicrobial activity) [Peptide 1T-294] | T. denticola
14 | 1T-145 (VEAGKRNISLENIEKISKGLGISISELFKYIEEGEDKIG; Peptide with targeting and/or antimicrobial activity) [Peptide 1T-145] | S. mitis; also recorded: S. mutans; also recorded: S. oralis
15 | 1T-112 (SDNDGKLILGTSQ; Peptide with targeting and/or antimicrobial activity) [Peptide 1T-112] | S. gordonii
16 | 1T-261 (SFEKNKIENNLKIAQAYIYIKPKPRICQA; Peptide with targeting and/or antimicrobial activity) [Peptide 1T-261] | F. nucleatum; also recorded: S. mutans; also recorded: S. oralis; also recorded: S. sanguinis
17 | 1T-188 (HRKDVYKK; Peptide with targeting and/or antimicrobial activity) [Peptide 1T-188] | S. sanguinis
18 | 1T-270 (VHEFDIQKILQNR; Peptide with targeting and/or antimicrobial activity) [Peptide 1T-270] | F. nucleatum; also recorded: S. mutans; also recorded: S. oralis; also recorded: S. sanguinis
19 | 1T-19 (PGAFRNPQMPRG; Peptide with targeting and/or antimicrobial activity) [Peptide 1T-19] | S. aureus; also recorded: S. epidermidis; also recorded: P. aeruginosa

same assay, conditions: microorganism(s) the targeting peptide binds; binding in aqueous buffers depending on peptide solubility, preferably 1x PBS

Row | Substance | Target(s)
20 | PF-151 (EEYPARVPLSGEDVTEARRH; Peptide with targeting and/or antimicrobial activity) | S. epidermidis and MRSA and E. faecalis and C. jeikeium
21 | PF-285 (VPAKLLRVIDEIPE; Peptide with targeting and/or antimicrobial activity) | S. mutans
22 | PF-259 (LPFSKIGRRVSYKKKDVLKYEQSKTVLNTAQLATV; Peptide with targeting and/or antimicrobial activity) | S. epidermidis; also recorded: P. aeruginosa; also recorded: A. baumannii
23 | PF-152 (VGYFIWKDSHSRKG; Peptide with targeting and/or antimicrobial activity) | S. epidermidis and C. albicans and MRSA and E. faecalis and C. jeikeium
24 | PF-324 (HFSLL; Peptide with targeting and/or antimicrobial activity) | C. difficile
25 | PF-314 (ECLKKAIKSKALNKAFKIDVPDEVYDNLLMELEEYEK; Peptide with targeting and/or antimicrobial activity) | S. mutans
26 | PF-130 (LQRSDEESMPRRHEKYS; Peptide with targeting and/or antimicrobial activity) | E. faecalis; also recorded: C. jeikeium; also recorded: C. jejuni
27 | PF-187 (EIQKIAKGVSGQVYGPSRQITISKKR; Peptide with targeting and/or antimicrobial activity) | S. epidermidis and M. luteus and E. coli and MRSA
28 | PF-166 (SKAVSRKRSI; Peptide with targeting and/or antimicrobial activity) | E. coli; also recorded: C. jeikeium
29 | PF-329 (IGILFDKSVRKY; Peptide with targeting and/or antimicrobial activity) | S. epidermidis
30 | PF-359 (MTVMEDPGSEQRNKIQSPMKGEDFSALFGR; Peptide with targeting and/or antimicrobial activity) | S. epidermidis and B. fragilis and P. aeruginosa and C. albicans and MRSA and E. faecalis and C. jeikeium

same assay, conditions: microorganism(s) the targeting peptide binds; peptide binding conducted in aqueous buffers varied by peptide solubility, preferably 1x PBS

Row | Substance | Target(s)
31 | PF-438 (QPYFQNQFKKITGYTPLQYRKEKR; Peptide with targeting and/or antimicrobial activity) | S. epidermidis; also recorded: E. coli; also recorded: S. pneumoniae; also recorded: C. jeikeium; also recorded: C. jejuni
32 | PF-436 (KKHVLVGKQEKNG; Peptide with targeting and/or antimicrobial activity) | C. jeikeium

same assay, conditions: peptide binding in aqueous buffers varied by peptide solubility; preferably 1x PBS

Row | Substance | Target(s) (microorganisms bound by the targeting peptide)
33 | PF-796 (YTQSNIPTAYALMLSNKDSI; Peptide with targeting and/or antimicrobial activity) | S. mutans
34 | PF-703 (MTTVDNIVGLVIAVALMAFLFAALLFPEKF; Peptide with targeting and/or antimicrobial activity) | Mycobacteria spp
35 | PF-S018 (GMPQIPRLRI; Peptide with targeting and/or antimicrobial activity) | S. epidermidis and M. luteus and C. albicans and MRSA and E. faecalis and C. jeikeium and C. jejuni
